Measurements reported in US5534632A, “Macrocyclic carbamate immunomodulators” (Abbott Laboratories, priority 1994, dated 1996).

test system: human mixed lymphocyte reaction (MLR); assay: human mixed lymphocyte reaction (MLR) assay, immunosuppressant activity; assay type: cell-based; settings: Table 1
Method: The immunosuppressant activity of the compounds of the present invention was determined using the human mixed lymphocyte reaction (MLR) assay described by Kino, T. et al. in Transplantation Proceedings, XIX(5):36-39,Suppl.

| SMILES | IC50 [nM] |
| --- | --- |
| CC[C@@H]1/C=C(\C)C[C@H](C)C[C@H](OC)[C@H]2O[C@@](O)(C(=O)C(=O)N3CCCC[C@H]3C(=O)O[C@H](/C(C)=C/[C@@H]3CC[C@@H](OC(=O)Nc4ccncc4)[C@H](OC)C3)[C@H](C)[C@@H](O)CC1=O)[C@H](C)C[C@@H]2OC [Example 14] | 0.48 |
| CC[C@@H]1/C=C(\C)C[C@H](C)C[C@H](OC)[C@H]2O[C@@](O)(C(=O)C(=O)N3CCCC[C@H]3C(=O)O[C@H](/C(C)=C/[C@@H]3CC[C@@H](OC(=O)NOCc4ccccc4)[C@H](OC)C3)[C@H](C)[C@@H](O)CC1=O)[C@H](C)C[C@@H]2OC [Example 6] | 0.21 |
| CC[C@@H]1/C=C(\C)C[C@H](C)C[C@H](OC)[C@H]2O[C@@](O)(C(=O)C(=O)N3CCCC[C@H]3C(=O)O[C@H](/C(C)=C/[C@@H]3CC[C@H](OC(=O)Nc4ccncc4)[C@H](OC)C3)[C@H](C)[C@@H](O)CC1=O)[C@H](C)C[C@@H]2OC [Example 43] | 0.34 |
| CC[C@@H]1/C=C(\C)C[C@H](C)C[C@H](OC)[C@H]2O[C@@](O)(C(=O)C(=O)N3CCCC[C@H]3C(=O)O[C@H](/C(C)=C/[C@@H]3CC[C@@H](OC(=O)N(C)CCN(CC)CC)[C@H](OC)C3)[C@H](C)[C@@H](O)CC1=O)[C@H](C)C[C@@H]2OC [Example 35] | 1.79 |
| CC[C@@H]1/C=C(\C)C[C@H](C)C[C@H](OC)[C@H]2O[C@@](O)(C(=O)C(=O)N3CCCC[C@H]3C(=O)O[C@H](/C(C)=C/[C@@H]3CC[C@@H](OC(=O)N4CCC(C(=O)O)CC4)[C@H](OC)C3)[C@H](C)[C@@H](O)CC1=O)[C@H](C)C[C@@H]2OC [Example 18] | 13 |
| CC[C@@H]1/C=C(\C)C[C@H](C)C[C@H](OC)[C@H]2O[C@@](O)(C(=O)C(=O)N3CCCC[C@H]3C(=O)O[C@H](/C(C)=C/[C@@H]3CC[C@H](OC(=O)N(CCO)CCO)[C@H](OC)C3)[C@H](C)[C@@H](O)CC1=O)[C@H](C)C[C@@H]2OC [Example 45] | 0.11 |
| CC[C@@H]1/C=C(\C)C[C@H](C)C[C@H](OC)[C@H]2O[C@@](O)(C(=O)C(=O)N3CCCC[C@H]3C(=O)O[C@H](/C(C)=C/[C@@H]3CC[C@@H](OC(=O)N4CCC(C(N)=O)CC4)[C@H](OC)C3)[C@H](C)[C@@H](O)CC1=O)[C@H](C)C[C@@H]2OC [Example 36] | 15 |
| CC[C@@H]1/C=C(\C)C[C@H](C)C[C@H](OC)[C@H]2O[C@@](O)(C(=O)C(=O)N3CCCC[C@H]3C(=O)O[C@H](/C(C)=C/[C@@H]3CC[C@@H](OC(=O)N4CCOCCOCCOCCOCC4)[C@H](OC)C3)[C@H](C)[C@@H](O)CC1=O)[C@H](C)C[C@@H]2OC [Example 34] | 1.1 |
| CC[C@@H]1/C=C(\C)C[C@H](C)C[C@H](OC)[C@H]2O[C@@](O)(C(=O)C(=O)N3CCCC[C@H]3C(=O)O[C@H](/C(C)=C/[C@@H]3CC[C@@H](OC(=O)N(C)O)[C@H](OC)C3)[C@H](C)[C@@H](O)CC1=O)[C@H](C)C[C@@H]2OC [Example 25] | 0.28 |
| CC[C@@H]1/C=C(\C)C[C@H](C)C[C@H](OC)[C@H]2O[C@@](O)(C(=O)C(=O)N3CCCC[C@H]3C(=O)O[C@H](/C(C)=C/[C@@H]3CC[C@@H](OC(=O)N4CCC(c5ccccc5)CC4)[C@H](OC)C3)[C@H](C)[C@@H](O)CC1=O)[C@H](C)C[C@@H]2OC [Example 19] | 2.6 |
| CC[C@@H]1/C=C(\C)C[C@H](C)C[C@H](OC)[C@H]2O[C@@](O)(C(=O)C(=O)N3CCCC[C@H]3C(=O)O[C@H](/C(C)=C/[C@@H]3CC[C@@H](OC(=O)N4CCC(O)CC4)[C@H](OC)C3)[C@H](C)[C@@H](O)CC1=O)[C@H](C)C[C@@H]2OC [Example 15] | 1.34 |
| CC[C@@H]1/C=C(\C)C[C@H](C)C[C@H](OC)[C@H]2O[C@@](O)(C(=O)C(=O)N3CCCC[C@H]3C(=O)O[C@H](/C(C)=C/[C@@H]3CC[C@@H](OC(=O)N(O)C4CCCCC4)[C@H](OC)C3)[C@H](C)[C@@H](O)CC1=O)[C@H](C)C[C@@H]2OC [Example 26] | 1 |
| CC[C@@H]1/C=C(\C)C[C@H](C)C[C@H](OC)[C@H]2O[C@@](O)(C(=O)C(=O)N3CCCC[C@H]3C(=O)O[C@H](/C(C)=C/[C@@H]3CC[C@@H](OC(=O)N(CC)CCO)[C@H](OC)C3)[C@H](C)[C@@H](O)CC1=O)[C@H](C)C[C@@H]2OC [Example 28] | 4.26 |
| CC[C@@H]1/C=C(\C)C[C@H](C)C[C@H](OC)[C@H]2O[C@@](O)(C(=O)C(=O)N3CCCC[C@H]3C(=O)O[C@H](/C(C)=C/[C@@H]3CC[C@H](OC(=O)N4CCOCC4)[C@H](OC)C3)[C@H](C)[C@@H](O)CC1=O)[C@H](C)C[C@@H]2OC [Example 41] | 0.08 |
| CC[C@@H]1/C=C(\C)C[C@H](C)C[C@H](OC)[C@H]2O[C@@](O)(C(=O)C(=O)N3CCCC[C@H]3C(=O)O[C@H](/C(C)=C/[C@@H]3CC[C@@H](OC(=O)NNC(N)=O)[C@H](OC)C3)[C@H](C)[C@@H](O)CC1=O)[C@H](C)C[C@@H]2OC [Example 5] | 8.7 |
| CC[C@@H]1/C=C(\C)C[C@H](C)C[C@H](OC)[C@H]2O[C@@](O)(C(=O)C(=O)N3CCCC[C@H]3C(=O)O[C@H](/C(C)=C/[C@@H]3CC[C@@H](OC(=O)N(C)CCc4ccccc4)[C@H](OC)C3)[C@H](C)[C@@H](O)CC1=O)[C@H](C)C[C@@H]2OC [Example 30] | 4.2 |
| CC[C@@H]1/C=C(\C)C[C@H](C)C[C@H](OC)[C@H]2O[C@@](O)(C(=O)C(=O)N3CCCC[C@H]3C(=O)O[C@H](/C(C)=C/[C@@H]3CC[C@@H](OC(=O)N4CCC(=O)CC4)[C@H](OC)C3)[C@H](C)[C@@H](O)CC1=O)[C@H](C)C[C@@H]2OC [Example 16] | 4.75 |
| CC[C@@H]1/C=C(\C)C[C@H](C)C[C@H](OC)[C@H]2O[C@@](O)(C(=O)C(=O)N3CCCC[C@H]3C(=O)O[C@H](/C(C)=C/[C@@H]3CC[C@@H](OC(=O)N(C)OC)[C@H](OC)C3)[C@H](C)[C@@H](O)CC1=O)[C@H](C)C[C@@H]2OC [Example 24] | 1.1 |
| CC[C@@H]1/C=C(\C)C[C@H](C)C[C@H](OC)[C@H]2O[C@@](O)(C(=O)C(=O)N3CCCC[C@H]3C(=O)O[C@H](/C(C)=C/[C@@H]3CC[C@H](OC(=O)NC(CO)(CO)CO)[C@H](OC)C3)[C@H](C)[C@@H](O)CC1=O)[C@H](C)C[C@@H]2OC [Example 40] | 0.68 |
| CC[C@@H]1/C=C(\C)C[C@H](C)C[C@H](OC)[C@H]2O[C@@](O)(C(=O)C(=O)N3CCCC[C@H]3C(=O)O[C@H](/C(C)=C/[C@@H]3CC[C@@H](OC(=O)N(C)C[C@H](O)[C@@H](O)[C@H](O)[C@H](O)CO)[C@H](OC)C3)[C@H](C)[C@@H](O)CC1=O)[C@H](C)C[C@@H]2OC [Example 23] | 50 |
| CCOC(=O)CN(C)C(=O)O[C@@H]1CC[C@@H](/C=C(\C)[C@H]2OC(=O)[C@@H]3CCCCN3C(=O)C(=O)[C@]3(O)O[C@H]([C@@H](OC)C[C@@H](C)C/C(C)=C/[C@@H](CC)C(=O)C[C@H](O)[C@H]2C)[C@@H](OC)C[C@H]3C)C[C@H]1OC [Example 32] | 27 |
| CC[C@@H]1/C=C(\C)C[C@H](C)C[C@H](OC)[C@H]2O[C@@](O)(C(=O)C(=O)N3CCCC[C@H]3C(=O)O[C@H](/C(C)=C/[C@@H]3CC[C@@H](OC(=O)N4CCCCC4)[C@H](OC)C3)[C@H](C)[C@@H](O)CC1=O)[C@H](C)C[C@@H]2OC [Example 12] | 1.2 |
| CC[C@@H]1/C=C(\C)C[C@H](C)C[C@H](OC)[C@H]2O[C@@](O)(C(=O)C(=O)N3CCCC[C@H]3C(=O)O[C@H](/C(C)=C/[C@@H]3CC[C@@H](OC(=O)N(C)Cc4ccccc4)[C@H](OC)C3)[C@H](C)[C@@H](O)CC1=O)[C@H](C)C[C@@H]2OC [Example 29] | 4.45 |
| CC[C@@H]1/C=C(\C)C[C@H](C)C[C@H](OC)[C@H]2O[C@@](O)(C(=O)C(=O)N3CCCC[C@H]3C(=O)O[C@H](/C(C)=C/[C@@H]3CC[C@@H](OC(=O)N4CCNCC4)[C@H](OC)C3)[C@H](C)[C@@H](O)CC1=O)[C@H](C)C[C@@H]2OC [Example 21] | 11 |
| CC[C@@H]1/C=C(\C)C[C@H](C)C[C@H](OC)[C@H]2O[C@@](O)(C(=O)C(=O)N3CCCC[C@H]3C(=O)O[C@H](/C(C)=C/[C@@H]3CC[C@@H](OC(=O)N4CCOCC4)[C@H](OC)C3)[C@H](C)[C@@H](O)CC1=O)[C@H](C)C[C@@H]2OC [Example 8] | 0.4 |
| CC[C@@H]1/C=C(\C)C[C@H](C)C[C@H](OC)[C@H]2O[C@@](O)(C(=O)C(=O)N3CCCC[C@H]3C(=O)O[C@H](/C(C)=C/[C@@H]3CC[C@@H](OC(=O)NO)[C@H](OC)C3)[C@H](C)[C@@H](O)CC1=O)[C@H](C)C[C@@H]2OC [Example 27] | 1.28 |
| CC[C@@H]1/C=C(\C)C[C@H](C)C[C@H](OC)[C@H]2O[C@@](O)(C(=O)C(=O)N3CCCC[C@H]3C(=O)O[C@H](/C(C)=C/[C@@H]3CC[C@@H](OC(=O)N(CCO)CCO)[C@H](OC)C3)[C@H](C)[C@@H](O)CC1=O)[C@H](C)C[C@@H]2OC [Example 13] | 3.3 |
| CC[C@@H]1/C=C(\C)C[C@H](C)C[C@H](OC)[C@H]2O[C@@](O)(C(=O)C(=O)N3CCCC[C@H]3C(=O)O[C@H](/C(C)=C/[C@@H]3CC[C@@H](OC(=O)N4CCN(C)CC4)[C@H](OC)C3)[C@H](C)[C@@H](O)CC1=O)[C@H](C)C[C@@H]2OC [Example 22] | 28 |
